Assays:
[1] = system: PANC08.13 (pancreatic cancer cell line); experiment: KRAS Cell Titer Glo (CTG) viability assay, Panc08.13; format: cell-based; settings: Panc08.13, 7-day, geometric mean when n>1
Text: (§1) The CellTiter-Glo® (CTG) Luminescent Cell Viability Assay is a homogeneous method of determining the number of viable cells in culture based on quantitation of the ATP present, an indicator of metabolically active cells. The CTG is designed for use with multi-well formats, making it ideal for automated high-throughput screening (HTS), cell proliferation and cytotoxicity assays. The homogeneous assay procedure involves adding the single reagent (CellTiter-Glo® Reagent) directly to cells cultured in serum-supplemented medium. Cell washing, removal of medium and multiple pipetting steps are not required. The system detects as few as 15 cells per well in a 384-well format in 10 minutes after adding reagent and mixing.
(§2) Cells are grown in humidified 5% CO2 incubator at 37° C. using the culture conditions outlined below. All cell culture media reagents were purchased from Gibco. Cell lines purchased from ATCC: H358 (non-small cell lung cancer cell line), SW620 (colorectal cancer cell line), PANC08.13 (RPM11640+10% FBS+10 units/ml Insulin, pancreatic cancer cell line). Test and control compounds are dispensed as nanoliter drops according to desired final concentrations in 0.1% DMSO using Echo Acoustic Dispenser onto 384 assay plates (Corning, Cat #3764) prior to cell seeding. Cells were seeded in 40 μL volume per well at the following cell densities (cells per well): H358 (300), SW620 (750), PANC 08.13 (600). Cells are incubated in the presence of compound for 7-days. Viability is determined on Day 7 using CellTiter-Glo® (CTG) Luminescent Cell Viability Assay (Promega). CTG is added to a final volume of 20 μl per well and incubated at room temperature for 15 minutes before luminescence is captured using an EnVision Reader with LUM384 US protocol. Data is analyzed using Activity Base to determine compound response and will be represented either as a percent effect (PCTEFF) or percent control (PCTOCTL) as described: Zero percent effect control (ZPE) (Negative control)—100% DMSO. Hundred percent effect (HPE) (Positive control)—1 μM Trametinib (GSK1120212, MEK inhibitor) (4 nl of 10 mM and 36 nl of DMSO per well). The following equations/nomenclature are used (% Effect; PCTEFF) and (% of Control; PCTOCTL): PCTEFF: 100*(Raw_Data_Value−HPE/ZPE−HPE), PCTOCTL: 100*Raw_Data_Value/User_Defined_Array), where the User_Defined_Array is either summarized HPE or ZPE.

[2] = system: H358 (non-small cell lung cancer cell line); experiment: KRAS Cell Titer Glo (CTG) viability assay, H358; format: cell-based; settings: H358, 7-day, geometric mean when n>1
Text: as §1, §2

[3] = system: SW620 (colorectal cancer cell line); experiment: KRAS Cell Titer Glo (CTG) viability assay, SW620; format: cell-based; settings: SW620, 7-day, geometric mean when n>1
Text: as §1, §2

WT GTPγS KRAS (aa1-185) = target: T1, WT GTPγS KRAS (aa1-185) (Homo sapiens, UniProt P01116); experiment: SPR binding (Biacore), GTPγS-loaded WT KRAS; settings: for Kd: 10° C., geometric mean when n>1, read-out: KRasGTPgS SPR KD; for KRasGTPgS SPR t1/2: dissociative half-life, t1/2=0.693/koff
T1 construct: wild-type (WT) KRASGDP (aa1-185); made in house
Text: (§3) No additional regeneration was used.
(§4) Compound dissociation was monitored for at least 3600 seconds. […] No additional regeneration was used.

[4] = target: T2, G12D GTPγS KRAS (aa1-185) (Homo sapiens, UniProt P01116, G12D); experiment: SPR binding (Biacore), GTPγS-loaded KRAS G12D; settings: for Kd: 10° C., geometric mean when n>1, read-out: KRasGTPgS G12D SPR KD; for KRasGTPgS G12D SPR t1/2: dissociative half-life, t1/2=0.693/koff
T2 construct: G12DGDP KRAS (aa1-185); made in house
Text: as §3, §4

[5] = target: T3, G12C GTPγS KRAS (aa2-184) (Homo sapiens, UniProt P01116, G12C); experiment: SPR binding (Biacore), GTPγS-loaded KRAS G12C; settings: for Kd: 10° C., geometric mean when n>1, read-out: KRasGTPgS G12C SPR KD; for KRasGTPgS G12C SPR t1/2: dissociative half-life, t1/2=0.693/koff
T3 construct: G12CGDP KRAS (aa2-184); made in house
Text: as §3, §4

[6] = target: T4, G12V GTPγS KRAS (aa2-184) (Homo sapiens, UniProt P01116, G12V); experiment: SPR binding (Biacore), GTPγS-loaded KRAS G12V; settings: for Kd: 10° C., geometric mean when n>1, read-out: KRasGTPgS G12V SPR KD; for KRasGTPgS G12V SPR t1/2: dissociative half-life, t1/2=0.693/koff
T4 construct: G12VGDP KRAS (aa2-184); made in house
Text: as §3, §4

[7] = target: T5, wild-type (WT) KRAS GDP (aa1-185) (Homo sapiens, UniProt P01116); experiment: SPR binding (Biacore), GDP-loaded WT KRAS; settings: 10° C., geometric mean when n>1
T5 construct: wild-type (WT) KRASGDP (aa1-185); made in house
Text: as §3, §4

G12D GDP KRAS (aa1-185) = G12D GDP KRAS (aa1-185) (Homo sapiens, UniProt P01116, G12D); experiment: biochemical
Protocol: (§5) The binding affinity and kinetics were measured by Surface Plasmon Resonance (SPR) using Biacore 8K or 8K+ (Cytiva, Marlborough, MA) instruments. Recombinant, C-terminal site-specific biotinylated, wild-type (WT) KRASGDP (aa1-185), G12DGDP KRAS (aa1-185), G12CGDP KRAS (aa2-184), G12VGDP KRAS (aa2-184), WT HRASGDP (aa2-184) and WT NRASGDP (aa2-185) proteins were purified in presence of 1 μM GDP. The GDP-loaded KRAS proteins then went through nucleotide exchange with GTPγS (a non-hydrolysable analog of GTP) in the presence of alkaline phosphatase beads to obtain WTGTPγS KRAS (aa1-185), G12DGTPγS KRAS (aa1-185), G12CGTPγS KRAS (aa2-184), G12VGTPγS KRAS (aa2-184), WT HRASGTPγS (aa2-184) and WT NRASGTPγS (aa2-185). Binding measurements were performed parallelly in sets of either WT/G12D/G12C/G12V KRAS or WT K/H/N RAS proteins in GDP- and/or GTPγS-loaded forms, respectively.
(§6) Biacore instrument was desorbed and docked with a Series S Sensor Chip SA. […] Compound binding kinetics were measured in either multi-cycle or single-cycle kinetic format.
(§7) A 2-fold, 10-point serial dilution of test compounds was set-up in a 96-well microplate (Greiner; Cat #650101) with a top concentration of either 10 μM or 100 μM. Binding kinetics was measured at 10° C. by injecting serial dilution of compounds onto both reference and RAS immobilized channels at a flow rate of 100 μL/min and association time of 90 seconds. Compound dissociation was monitored for at least 400 seconds during each cycle. […]
(§8) A 3-fold, 6-point serial dilution of compounds was set-up in a deep 96-well microplate (Greiner Bio; Cat #780201) with the highest concentration of 1 μM (concentration range: 0.004-1 μM). Binding kinetics was measured at 10° C. by injecting serial dilutions of compounds in increasing order onto reference as well as RAS immobilized channels at a flow rate of 100 μL/min and association time of 120 seconds. Compound dissociation was monitored for at least 3600 seconds. […]
(§9) Both MCK and SCK data were processed and analyzed using Biacore Insight evaluation software (Cytiva, Marlborough, MA)). […]

G12C GDP KRAS (aa2-184) = G12C GDP KRAS (aa2-184) (Homo sapiens, UniProt P01116, G12C); experiment: biochemical
Protocol: as §5, §6, §7, §8, §9

G12V GDP KRAS (aa2-184) = G12V GDP KRAS (aa2-184) (Homo sapiens, UniProt P01116, G12V); experiment: biochemical
Protocol: as §5, §6, §7, §8, §9

[8] = Homo sapiens, PANC-08-13, 168 h

| Compound | IC50 [1, 8] | IC50 ([2]; Homo sapiens, NCI-H358, 168 h) | IC50 ([3]; Homo sapiens, SW-620, 168 h) | further results |
| --- | --- | --- | --- | --- |
| C#Cc1cccc2cc(O)cc(-c3ncc4c(N5C[C@@H]6C[C@H](C5)[C@H](O)C6)nc(OC[C@@]56CCCN5C[C@H](F)C6)nc4c3F)c12 [Example 9, (1R,5R,6R)-3-[7-(8-ethynyl-3-hydroxynaphthalen-1-yl)-8-fluoro-2-{[(2R,7aS)-2-fluorotetrahydro-1H-pyrrolizin-7a(5H)-yl]methoxy}pyrido[4,3-d]pyrimidin-4-yl]-3-azabicyclo[3.2.1]octan-6-ol] | 12.3 nM | 112 nM | 166 nM | – |
| C#Cc1c(F)ccc2cc(O)cc(-c3ncc4c(N5C[C@@H]6C[C@H](C5)[C@H](O)C6)nc(OC[C@@]56CCCN5C[C@H](F)C6)nc4c3F)c12 [Example 10, (1R,5R,6R)-3-[7-(8-ethynyl-7-fluoro-3-hydroxynaphthalen-1-yl)-8-fluoro-2-{[(2R,7aS)-2-fluorotetrahydro-1H-pyrrolizin-7a(5H)-yl]methoxy}pyrido[4,3-d]pyrimidin-4-yl]-3-azabicyclo[3.2.1]octan-6-ol] | 8.15 nM | 26.9 nM | 35.7 nM | – |
| N#CC[C@@H]1CCCN(c2nc(OC[C@@]34CCCN3C[C@H](F)C4)nc3c(F)c(-c4cc(O)cc5ccc(F)c(F)c45)ncc23)C1 [Example 12, {(3S)-1-[7-(7,8-difluoro-3-hydroxynaphthalen-1-yl)-8-fluoro-2-{[(2R,7aS)-2-fluorotetrahydro-1H-pyrrolizin-7a(5H)-yl]methoxy}pyrido[4,3-d]pyrimidin-4-yl]piperidin-3-yl}acetonitrile] | 19.8 nM | 115 nM | 136 nM | – |
| Oc1cc(-c2ncc3c(N4C[C@@H]5C[C@H](C4)[C@H](O)C5)nc(OC[C@@]45CCCN4C[C@H](F)C5)nc3c2F)c2c(F)c(F)ccc2c1 [Example 14, (1R,5R,6R)-3-[7-(7,8-difluoro-3-hydroxynaphthalen-1-yl)-8-fluoro-2-{[(2R,7aS)-2-fluorotetrahydro-1H-pyrrolizin-7a(5H)-yl]methoxy}pyrido[4,3-d]pyrimidin-4-yl]-3-azabicyclo[3.2.1]octan-6-ol] | 10.8 nM | 41.6 nM | 35.3 nM | – |
| C#Cc1c(F)ccc2cc(O)cc(-c3ncc4c(N5CCC[C@@H](CC#N)C5)nc(OC[C@@]56CCCN5C[C@H](F)C6)nc4c3F)c12 [Example 15, {(3S)-1-[7-(8-ethynyl-7-fluoro-3-hydroxynaphthalen-1-yl)-8-fluoro-2-{[(2R,7aS)-2-fluorotetrahydro-1H-pyrrolizin-7a(5H)-yl]methoxy}pyrido[4,3-d]pyrimidin-4-yl]piperidin-3-yl}acetonitrile] | 121 nM | 493 nM | 871 nM | – |
| Oc1cc(-c2ncc3c(N4C[C@@H]5C[C@H](C4)[C@H](O)C5)nc(OC[C@@]45CCCN4C[C@H](F)C5)nc3c2F)c2c(Cl)cccc2c1 [Example 20, (1R,5R,6R)-3-[7-(8-chloro-3-hydroxynaphthalen-1-yl)-8-fluoro-2-{[(2R,7aS)-2-fluorotetrahydro-1H-pyrrolizin-7a(5H)-yl]methoxy}pyrido[4,3-d]pyrimidin-4-yl]-3-azabicyclo[3.2.1]octan-6-ol] | 45.2 nM | 142 nM | 164 nM | – |
| C#Cc1c(F)ccc2cc(O)cc(-c3nc4c5c(nc(OC[C@@]67CCCN6C[C@H](F)C7)nc5c3F)N3CCCC[C@H]3CO4)c12 [Example 23, 5-ethynyl-6-fluoro-4-[(8aS)-4-fluoro-2-{[(2R,7aS)-2-fluorotetrahydro-1H-pyrrolizin-7a(5H)-yl]methoxy}-8,8a,9,10,11,12-hexahydro-7-oxa-1,3,6,12a-tetraazabenzo[4,5]cyclohepta[1,2,3-de]naphthalen-5-yl]naphthalen-2-ol] | 1.2 nM | 74 nM | 46 nM | – |
| C#Cc1c(F)c(F)cc2cc(O)cc(-c3nc4c5c(nc(OC[C@@]67CCCN6C[C@H](F)C7)nc5c3F)N3CCCC[C@H]3CO4)c12 [Example 32, 5-ethynyl-6,7-difluoro-4-[(8aS)-4-fluoro-2-{[(2R,7aS)-2-fluorotetrahydro-1H-pyrrolizin-7a(5H)-yl]methoxy}-8,8a,9,10,11,12-hexahydro-7-oxa-1,3,6,12a-tetraazabenzo[4,5]cyclohepta[1,2,3-de]naphthalen-5-yl]naphthalen-2-ol] | 2.1 nM | – | – | IC50 [2]: 48 nM; IC50 [3]: 45 nM |
| C#Cc1c(F)c(F)cc2cc(O)cc(-c3nc4c5c(nc(OC[C@@]67CCCN6C[C@H](F)C7)nc5c3F)N3CCCC[C@H]3CO4)c12 [Example 33, 5-ethynyl-6,7-difluoro-4-[(8aS)-4-fluoro-2-{[(2R,7aS)-2-fluorotetrahydro-1H-pyrrolizin-7a(5H)-yl]methoxy}-8,8a,9,10,11,12-hexahydro-7-oxa-1,3,6,12a-tetraazabenzo[4,5]cyclohepta[1,2,3-de]naphthalen-5-yl]naphthalen-2-ol] | – | – | – | Kd (WT GTPγS KRAS (aa1-185)): 0.168 nM; KRasGTPgS SPR t1/2 (WT GTPγS KRAS (aa1-185)): 12.7 h; Kd [4]: 0.119 nM; KRasGTPgS G12D SPR t1/2 [4]: 9.9 h; Kd [5]: 0.205 nM; KRasGTPgS G12C SPR t1/2 [5]: 17.6 h; Kd [6]: 0.172 nM; KRasGTPgS G12V SPR t1/2 [6]: 12.7 h; IC50 [1]: 1.1 nM; IC50 [2]: 3.9 nM; IC50 [3]: 6.6 nM |
| C=C1CN2CCC[C@@]2(COc2nc3c4c(nc(-c5cc(O)cc6ccc(F)c(CC)c56)c(F)c4n2)OC[C@@H]2COCCCN32)C1 [Example 35, 5-ethyl-6-fluoro-4-[(8aS)-4-fluoro-2-{[(7aS)-2-methylidenetetrahydro-1H-pyrrolizin-7a(5H)-yl]methoxy}-8a, 9,12,13-tetrahydro-8H,11H-7,10-dioxa-1,3,6,13a-tetraazanaphtho[1,8-ab]heptalen-5-yl]naphthalen-2-ol] | < 0.7 nM | 2.3 nM | 3.8 nM | Kd [7]: 0.007 nM; Kd (WT GTPγS KRAS (aa1-185)): 0.184 nM; KRasGTPgS SPR t1/2 (WT GTPγS KRAS (aa1-185)): 12.4 h; Kd [4]: 0.092 nM; KRasGTPgS G12D SPR t1/2 [4]: 11.3 h; Kd [5]: 0.181 nM; KRasGTPgS G12C SPR t1/2 [5]: 17.8 h; Kd [6]: 0.209 nM; KRasGTPgS G12V SPR t1/2 [6]: 10.3 h; Kd (G12D GDP KRAS (aa1-185)): 0.011 nM; Kd (G12C GDP KRAS (aa2-184)): 0.009 nM; Kd (G12V GDP KRAS (aa2-184)): 0.048 nM |

From patent US20260306506A1, “PYRIDO[4,3-D]PYRIMIDINE COMPOUNDS” (Pfizer Inc., priority 2023, published 2026)
